This note sets out measurements from ChEMBL document CHEMBL4152314, “Symmetrical and unsymmetrical substituted 2,5-diarylidene cyclohexanones as anti-parasitic compounds” (Eur J Med Chem, 2018).

A word on the IC50: it is the concentration needed to halve the response being measured. By CC50 is commonly meant the concentration giving 50% cytotoxicity. Usually EC50 stands for the concentration at which the effect is half-maximal.

In data set [1] the test system is Trypanosoma cruzi. Description: Antiparasitic activity against epimastigote form of Trypanosoma cruzi Y assessed as parasite growth inhibition after 96 hrs by Neubauer hemocytometer. It is filed as functional, organism-based.
Data set [2] in a line: Cytotoxicity against African green monkey Vero cells assessed as growth inhibition. To be noted: chlorocebus sabaeus. The format is cell-based.
The nature of data set [3]: Selectivity index, ratio of CC50 for African green monkey Vero cells to EC50 for trypomastigote form of Trypanosoma cruzi. The format is toxicity. To be noted: read-out: Ratio CC50/EC50.
Data set [4] can be described thus: Selectivity index, ratio of CC50 for African green monkey Vero cells to IC50 for promastigote form of Leishmania amazonensis MHOM/BR/Josefa. To be noted: read-out: Ratio CC50/IC50. The format is toxicity.
In the next data set the test system is Leishmania amazonensis. Briefly: Antiparasitic activity against promastigote form of Leishmania amazonensis MHOM/BR/Josefa assessed as parasite growth inhibition after 72 hrs by Neubauer hemocytometer. It is filed as functional, organism-based.
The test system of data set [5] is Trypanosoma cruzi. Description: Antiparasitic activity against trypomastigote form of Trypanosoma cruzi assessed as parasite lysis after 24 hrs by Pizzi-Brener method. The format is functional, organism-based.
A short description of data set [6]: Selectivity index, ratio of CC50 for African green monkey Vero cells to IC50 for epimastigote form of Trypanosoma cruzi Y. It is filed as toxicity. To be noted: read-out: Ratio CC50/IC50.

Consider `O=C1/C(=C/c2ccc3c(c2)OCO3)CCC/C1=C\c1ccc2c(c1)OCO2`, for which the IC50 in the data set with Trypanosoma cruzi [1] was more than 100 µM; with Leishmania amazonensis, 22 µM. Besides, the CC50 in data set [2] was 257 µM. Moreover, the selectivity ratio in data set [3] is 3.3; in data set [4], 11.7. In addition, in the data set with Trypanosoma cruzi [5], the EC50 came to 78 µM.

For the molecule `COc1ccc(/C=C2\CCC/C(=C\c3ccc([N+](=O)[O-])cc3)C2=O)cc1`, the IC50 in the data set with Trypanosoma cruzi [1] and with Leishmania amazonensis was more than 100 µM in each case. Besides, the CC50 in data set [2] was 435 µM. Moreover, the EC50 in the data set on Trypanosoma cruzi [5] is more than 100 µM.

With `COc1ccc(/C=C2\CCCCC2=O)cc1`, the values for the IC50 in the data set with Trypanosoma cruzi [1] and with Leishmania amazonensis were 54.8 µM and 54 µM, respectively. The CC50 in data set [2] was determined as 194 µM. Further, the selectivity ratio in data set [6] came out at 3.5; in data set [4], 3.6. The EC50 in the data set on Trypanosoma cruzi [5] was more than 100 µM.

Regarding `COc1cccc(/C=C2\CCC/C(=C\c3ccc([N+](=O)[O-])cc3)C2=O)c1OC`, the IC50 in the data set on Trypanosoma cruzi [1] is 33.3 µM; with Leishmania amazonensis, 3.9 µM. Besides, the CC50 in data set [2] is less than 10 µM. The EC50 with Trypanosoma cruzi [5] turned out to be 27.7 µM.

Turning to `COc1cccc(/C=C2\CCC/C(=C\c3cccc(Br)c3)C2=O)c1OC`, the IC50 in the data set on Trypanosoma cruzi [1] was found to be 33 µM; in the data set on Leishmania amazonensis, 19.8 µM. In addition, the CC50 in data set [2] came out at 31.5 µM. Moreover, the selectivity ratio came to 1 in data set [6], 0.4 in data set [3] and 1.6 in data set [4]. In the data set on Trypanosoma cruzi [5], the EC50 amounted to 72 µM.

For `COc1cccc(/C=C2\CCC/C(=C\C(C)Cc3ccc4c(c3)OCO4)C2=O)c1OC` (centres undefined), the IC50 came out at 26.1 µM in the data set with Trypanosoma cruzi [1] and 10 µM with Leishmania amazonensis. The CC50 in data set [2] is 178 µM. In addition, the selectivity ratio in data set [6] was 6.8; in data set [3] it was 2.2; in data set [4], 17.8. In addition, in the data set with Trypanosoma cruzi [5], the EC50 was found to be 82 µM.

As to `COc1cccc(/C=C2\CCCCC2=O)c1OC`, the IC50 in the data set on Trypanosoma cruzi [1] and in the data set with Leishmania amazonensis was more than 100 µM each time. Further, the CC50 in data set [2] came out at 720 µM. The EC50 in the data set with Trypanosoma cruzi [5] is more than 100 µM.

`COc1ccc(/C=C2\CCC/C(=C\c3ccccc3)C2=O)cc1`: the IC50 in the data set on Trypanosoma cruzi [1] came out at 20.6 µM; with Leishmania amazonensis it was 11.8 µM. The CC50 in data set [2] was determined as 291 µM. Moreover, the selectivity ratio was 14.1 in data set [6] and 24.6 in data set [4]. Also, in the data set on Trypanosoma cruzi [5], the EC50 is more than 100 µM.

On to `COc1ccc(/C=C2\CCC/C(=C\c3ccc(F)cc3)C2=O)cc1`, for which the IC50 with Trypanosoma cruzi [1] came out at 21 µM; in the data set on Leishmania amazonensis it was 10.8 µM. In data set [2], the cytotoxic concentration (CC50) was 378 µM. The selectivity ratio in data set [6] is 18; in data set [4], 35. Also, the EC50 with Trypanosoma cruzi [5] was more than 100 µM.

In the case of `COc1cccc(/C=C2\CCC/C(=C\c3cc(OC)c(OC)c(OC)c3)C2=O)c1OC`, the IC50 in the data set on Trypanosoma cruzi [1] turned out to be 3 µM; with Leishmania amazonensis, 2.6 µM. Moreover, the CC50 in data set [2] worked out at 29.3 µM. For the same molecule, the selectivity ratio was determined as 9.8 in data set [6], 1 in data set [3] and 11.3 in data set [4]. The EC50 in the data set with Trypanosoma cruzi [5] came to 30.2 µM.

`COc1ccc(/C=C2\CCC/C(=C\c3ccc(Br)cc3)C2=O)cc1`: the values for the IC50 with Trypanosoma cruzi [1] and in the data set on Leishmania amazonensis were 55 µM and 17.3 µM, respectively. Also, the CC50 in data set [2] came to 250 µM. The figures for the selectivity ratio in data set [6] and in data set [4] were 4.5 and 14.5, respectively. The EC50 with Trypanosoma cruzi [5] was more than 100 µM.

For `COc1ccc(/C=C2\CCC/C(=C\c3ccc(Cl)cc3)C2=O)cc1`, the IC50 in the data set on Trypanosoma cruzi [1] worked out at 21.6 µM; in the data set on Leishmania amazonensis, 17.8 µM. The CC50 in data set [2] turned out to be 401 µM. Also, the selectivity ratio was determined as 18.6 in data set [6] and 22.5 in data set [4]. The EC50 in the data set with Trypanosoma cruzi [5] is more than 100 µM.

Consider `COc1ccc(/C=C2\CCC/C(=C\c3cccc(OC)c3OC)C2=O)cc1OC`, for which the IC50 with Trypanosoma cruzi [1] is 28.5 µM; with Leishmania amazonensis, 4.5 µM. Also, the CC50 in data set [2] was 36.1 µM. The selectivity ratio in data set [6] amounted to 1.3; in data set [3], 1.5; in data set [4] it was 8. Besides, in the data set with Trypanosoma cruzi [5], the EC50 worked out at 23.8 µM.

With `COc1cccc(/C=C2\CCC/C(=C\c3ccc(F)cc3)C2=O)c1OC`, the 50% inhibitory concentration (IC50) with Trypanosoma cruzi [1] worked out at 24.4 µM; with Leishmania amazonensis, 4.7 µM. Besides, in data set [2], the CC50 came out at 33.2 µM. For the same molecule, the selectivity ratio in data set [6] turned out to be 1.4; in data set [3] it was 0.5; in data set [4], 7.1. The EC50 in the data set with Trypanosoma cruzi [5] stood at 70.2 µM.

For the molecule `COc1ccc(/C=C2\CCC/C(=C\c3ccc(N(C)C)cc3)C2=O)cc1`, the values for the concentration for half-maximal inhibition (IC50) in the data set with Trypanosoma cruzi [1] and with Leishmania amazonensis were more than 100 µM and 91 µM, respectively. Further, in data set [2], the CC50 stood at 392 µM. Besides, the selectivity ratio in data set [4] was 4.3. In the data set with Trypanosoma cruzi [5], the EC50 was more than 100 µM.

In the case of `COc1cccc(/C=C2\CCC/C(=C\c3ccc(Br)cc3)C2=O)c1OC`, the figures for the IC50 in the data set with Trypanosoma cruzi [1] and with Leishmania amazonensis were 35 µM and 20.1 µM, respectively. Moreover, in data set [2], the CC50 came to 31.5 µM. Also, the selectivity ratio in data set [6] was 0.9; in data set [3] it was 0.4; in data set [4] it was 1.6. The 50% effective concentration (EC50) in the data set with Trypanosoma cruzi [5] is 77 µM.

As to `COc1cc([N+](=O)[O-])ccc1/C=C1\CCC/C(=C\c2cccc(OC)c2OC)C1=O`, the IC50 amounted to 26.5 µM in the data set on Trypanosoma cruzi [1] and 4.8 µM with Leishmania amazonensis. The CC50 in data set [2] amounted to 120 µM. Further, the selectivity ratio was found to be 4.5 in data set [6] and 25 in data set [4]. Further, the EC50 with Trypanosoma cruzi [5] was more than 100 µM.

For `COc1ccc(/C=C2\CCC/C(=C\c3ccccc3Cl)C2=O)cc1`, the results for the IC50 with Trypanosoma cruzi [1] and in the data set with Leishmania amazonensis were 26.6 µM and 13 µM, respectively. Moreover, the CC50 in data set [2] amounted to 238 µM. The values for the selectivity ratio in data set [6] and in data set [4] were 8.9 and 18.3, respectively. Also, in the data set with Trypanosoma cruzi [5], the EC50 is more than 100 µM.

As to `COc1ccc(/C=C2\CCC/C(=C\c3cccc(Br)c3)C2=O)cc1`, the values for the IC50 with Trypanosoma cruzi [1] and in the data set on Leishmania amazonensis were 20.2 µM and 5.7 µM, respectively. Further, the CC50 in data set [2] was found to be 30 µM. Besides, the selectivity ratio worked out at 1.5 in data set [6] and 5.3 in data set [4]. Further, the EC50 in the data set on Trypanosoma cruzi [5] is more than 100 µM.

As for `COc1ccc(/C=C2\CCC/C(=C\c3ccccc3F)C2=O)cc1`, the IC50 was found to be 13.6 µM with Trypanosoma cruzi [1] and 9 µM with Leishmania amazonensis. For the same molecule, in data set [2], the CC50 stood at 270 µM. Besides, the selectivity ratio in data set [6] is 19.8; in data set [4], 29.9. Further, the half-maximal effective concentration (EC50) in the data set on Trypanosoma cruzi [5] was more than 100 µM.

As to `COc1cccc(/C=C2\CCC/C(=C\c3c(Cl)cccc3Cl)C2=O)c1OC`, the IC50 in the data set on Trypanosoma cruzi [1] is 26.2 µM; in the data set on Leishmania amazonensis it was 3.7 µM. The CC50 in data set [2] was 160 µM. Moreover, the values for the selectivity ratio in data set [6], in data set [3] and in data set [4] were 6.1, 4.6 and 43.3, respectively. The EC50 with Trypanosoma cruzi [5] was 35 µM.

With `COc1ccc(/C=C2\CCC/C(=C\c3ccc(OC)cc3)C2=O)cc1`, the half-maximal inhibitory concentration (IC50) in the data set with Trypanosoma cruzi [1] amounted to 63.6 µM; in the data set with Leishmania amazonensis it was 33.3 µM. The CC50 in data set [2] is 178 µM. Moreover, the values for the selectivity ratio in data set [6] and in data set [4] were 2.8 and 5.3, respectively. Further, the concentration for a half-maximal effect (EC50) with Trypanosoma cruzi [5] is more than 100 µM.

Turning to `O=C(Cn1ccnc1[N+](=O)[O-])NCc1ccccc1` [BENZNIDAZOLE], the IC50 with Trypanosoma cruzi [1] turned out to be 6.5 µM.

Regarding `COc1cc(/C=C/C(=O)CC(=O)/C=C/c2ccc(O)c(OC)c2)ccc1O` [CURCUMIN], the values for the IC50 with Trypanosoma cruzi [1] and in the data set with Leishmania amazonensis were 67.3 µM and more than 100 µM, respectively. Moreover, the CC50 in data set [2] worked out at 36.8 µM. Besides, the selectivity ratio in data set [6] was found to be 0.5; in data set [3], 2.5. The EC50 in the data set on Trypanosoma cruzi [5] stood at 15 µM.
